In PubChem BioAssay (NCI):
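Following 48 hours of exposure in 96-well plates, responses at five concentrations were used to interpolate endpoints linearly. GI50 is the concentration that inhibits growth by half. TGI: concentration producing complete growth inhibition.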

Columns and labels:
Experiment in all cases: NCI tumour cell line growth inhibition, 48 h
[1] = system: A549 NSCLC
[2] = system: NCI-H226 lung
[3] = system: HL-60(TB) leukemia
[4] = system: UACC-62 melanoma
[5] = system: SF-539 CNS
[6] = system: MCF7 breast
[7] = system: MOLT-4 leukemia
[8] = system: NCI-H23 lung
[9] = system: UO-31 renal
[10] = system: KM12 colon
[11] = system: UACC-257 melanoma
[12] = system: NCI/ADR-RES ovarian
[13] = system: SK-MEL-28 melanoma
[14] = system: 786-0 renal
[15] = system: HOP-92 NSCLC
[16] = system: NCI-H460 lung
[17] = system: SW-620 colon
[18] = system: SK-MEL-5 melanoma
[19] = system: EKVX NSCLC
[20] = system: OVCAR-3 ovarian
[21] = system: K-562 leukemia
[22] = system: MDA-MB-231 breast
[23] = system: OVCAR-5 ovarian
[24] = system: DU-145 prostate
[25] = system: SF-295 CNS
[26] = system: SN12C renal
[27] = system: MALME-3M melanoma
[28] = system: LOX IMVI melanoma
[29] = system: T-47D breast
[30] = system: HT29 colon
[31] = system: MDA-MB-435
[32] = system: SNB-19 CNS
[33] = system: HCT-15 colon
[34] = system: BT-549 breast
[35] = system: HCT-116 colon
[36] = system: RXF 393 renal
[37] = system: CAKI-1 renal
[38] = system: SNB-75 CNS
[39] = system: NCI-H522 lung
[40] = system: RPMI-8226 leukemia
[41] = system: U251 CNS
[42] = system: OVCAR-8 ovarian
[43] = system: COLO 205 colon
[44] = system: HOP-62 NSCLC
[45] = system: HS 578T breast
[46] = system: SK-OV-3 ovarian
[47] = system: PC-3 prostate
[48] = system: IGROV1 ovarian
[49] = system: TK-10 renal
[50] = system: M14 melanoma
[51] = system: SF-268 CNS
[52] = system: SK-MEL-2 melanoma
[53] = system: OVCAR-4 ovarian
[54] = system: CCRF-CEM leukemia
[55] = system: ACHN renal

## COc1cc2c3c(n(CCCNCCN)c(=O)c2cc1OC)-c1cc2c(cc1C3=O)OCO2
[1]
  GI50: 1.61 µM
  TGI: 13.7 µM
[2]
  GI50: 1.1 µM
  TGI: 2.55 µM
[3]
  GI50: 0.682 µM
  TGI: 3.66 µM
[4]
  GI50: 1.01 µM
  TGI: 2.64 µM
[5]
  GI50: 0.39 µM
  TGI: 2.22 µM
[6]
  GI50: 0.616 µM
  TGI: > 100 µM
[7]
  GI50: < 0.0445 µM
  TGI: 0.081 µM
[8]
  GI50: 0.242 µM
  TGI: 1.14 µM
[9]
  GI50: 5.26 µM
  TGI: > 32.9 µM
[10]
  GI50: 1.48 µM
  TGI: 7.19 µM
[11]
  GI50: 1.95 µM
  TGI: 14.1 µM
[12]
  GI50: 18.9 µM
  TGI: > 62.4 µM
[13]
  GI50: 0.822 µM
  TGI: 2.95 µM
[14]
  GI50: 0.312 µM
  TGI: 2.5 µM
[15]
  GI50: 2.31 µM
  TGI: 15.6 µM
[16]
  GI50: 1.24 µM
  TGI: > 49.9 µM
[17]
  GI50: 0.377 µM
  TGI: 3.9 µM
[18]
  GI50: 0.978 µM
  TGI: 6.77 µM
[19]
  GI50: 4.58 µM
  TGI: 17.2 µM
[20]
  GI50: 0.363 µM
  TGI: 1.21 µM
[21]
  GI50: 0.601 µM
  TGI: 3.77 µM
[22]
  GI50: 0.343 µM
  TGI: 2.48 µM
[23]
  GI50: 1.39 µM
  TGI: 10.5 µM
[24]
  GI50: 0.556 µM
  TGI: 3.41 µM
[25]
  GI50: 1.24 µM
  TGI: 20.3 µM
[26]
  GI50: 0.351 µM
  TGI: 4.35 µM
[27]
  GI50: 0.654 µM
  TGI: 7.74 µM
[28]
  GI50: 0.0299 µM
  TGI: 0.244 µM
[29]
  GI50: > 100 µM
  TGI: > 100 µM
[30]
  GI50: 1.08 µM
  TGI: 10.4 µM
[31]
  GI50: 1.02 µM
  TGI: 4.56 µM
[32]
  GI50: 40.8 µM
  TGI: > 100 µM
[33]
  TGI: > 40.3 µM
[34]
  GI50: 1.56 µM
  TGI: 9.7 µM
[35]
  GI50: 0.359 µM
  TGI: 0.986 µM
[36]
  GI50: 5.36 µM
  TGI: > 51.8 µM
[37]
  GI50: 0.836 µM
  TGI: 5.87 µM
[38]
  GI50: 6.34 µM
  TGI: 21.5 µM
[39]
  GI50: 0.245 µM
  TGI: 2.29 µM
[40]
  GI50: 0.475 µM
  TGI: 3.02 µM
[41]
  GI50: 0.0484 µM
  TGI: 0.533 µM
[42]
  GI50: 0.259 µM
  TGI: 6.73 µM
[43]
  GI50: > 100 µM
  TGI: > 100 µM
[44]
  GI50: 0.189 µM
  TGI: 1.73 µM
[45]
  GI50: 0.419 µM
  TGI: 4.76 µM
[46]
  GI50: > 100 µM
  TGI: > 100 µM
[47]
  GI50: 2.13 µM
  TGI: 14.9 µM
[48]
  GI50: 0.839 µM
[49]
  GI50: 2.9 µM
  TGI: 18.9 µM
[50]
  GI50: 0.738 µM
  TGI: 5.26 µM
[51]
  GI50: 0.776 µM
  TGI: > 31.9 µM
[52]
  GI50: 2.63 µM
  TGI: 8.67 µM
[53]
  GI50: 0.475 µM
  TGI: 2.47 µM
[54]
  GI50: < 0.0105 µM
  TGI: 0.339 µM
[55]
  GI50: 0.304 µM
  TGI: 1.01 µM
